Legend:
[1] = Tail Suspension Test, separated BALB/c mice (model for depression); type: in vivo; details: compounds 1 mg/kg i.p., imipramine 10 mg/kg i.p.; day 7; in relation to vehicle
Description: Tail suspension test (TST): Animals are suspended upside down by adhesive tape placed 1 cm from the tail tip. The elevation of the animal is 50 cm from the nearest surface. […] Statistical analysis compares the magnitude of immobility (in seconds) between different treatment groups. In this test, antidepressants characteristically cause an increase of the time fraction spent by the animal as active at the expense of the inactivity period.
50, 2 month old female BALB/c mice were separated (each mouse in a different cage) for 9 days period (a model for depression). On days 7, 8, 9, 34-40 mice were administered with either vehicle or compounds X, 12 and 15 (1 mg/kg i.p.) or imipramine 10 mg/kg (anti-depressant) i.p. and tested in the Tail suspension test on day 7 of the experiment (10 mice per group).

[2] = Body weight of C57BL/6 mice; type: in vivo
Description: Thus the compounds of the invention can be used to treat conditions that are mediated by the enhancement of leptin levels. In obesity there is high leptin level however the leptin receptors are not responding. High CNS leptin level has anti-depression effect however, if there is tolerance there is no anti depression effect.

POMC protein = POMC protein expression by western blot; type: in vivo, BALB/c mice
Description: 50, 2 month old female BALB/c mice, 10 mice per group, on ad libitum diet were separated (each mouse in a different cage) for 9 days (Separation Stress, a model for depression). On the 7, 8, 9, 34-40 days mice were administered with either vehicle or compounds x, 12 and 15 (1 mg/kg i.p.) or imipramine 10 mg/kg (antidepressant). POMC protein was monitored by western blot.

NPY protein = NPY protein expression by western blot; type: in vivo, BALB/c mice; details: FIG. 13
Description: 50, 2 month old female BALB/c mice, 10 mice per group, on ad libitum diet were separated (each mouse in a different cage) for 9 days (Separation Stress, a model for depression). On the 7, 8, 9, 34-40 days mice were administered with either vehicle or compounds X, 12 and 15 (1 mg/kg i.p.) or imipramine 10 mg/kg (antidepressant).

[3] = Forced Swim Test (FST), separated BALB/c mice; type: in vivo; details: compounds 1 mg/kg i.p., imipramine 10 mg/kg i.p.; day 8; in relation to vehicle
Description: Forced swim test (FST): The animal is placed in a circular, transparent, plexiglass tank measuring 21 cm in diameter and 46 cm in height containing water 15 cm high, maintained at 23-25° C. […] Also measured is the latency period, the time elapsing, for each animal from immersion in the water tank until the first occurrence of immobility. Since climbing activity is minimal in mice, […].
50, 2 month old female BALB/c mice, 10 mice per group, on ad libitum diet were separated (each mouse in a different cage) for 9 days (Separation Stress, a model for depression). On the 7, 8, 9, 34-40 days mice were administered with either vehicle or compounds x, 12 and 15 (1 mg/kg i.p.) or imipramine 10 mg/kg (antidepressant) i.p. and tested in the forced swim test (FST) on day 8.

## CCCCCCCC/C=C\CCCCCCCC(=O)N[C@H](CO)C(C)C [Compound 1, oleoyl-L-valinol amide]
[1]
  activity in Tail Suspension Test: significantly enhanced activity
[2]
  body weight: decreased body weight
POMC protein; hippocampus, FIG. 12
  POMC protein expression in the hippocampus: increased significantly
POMC protein; hypothalamus, FIG. 11
  POMC protein expression in the hypothalamus: increased significantly
NPY protein
  NPY protein expression in the hypothalamus: decrease significantly
[3]
  swimming activity in forced swim test: significantly enhanced swimming activity
